For the experiment, the target named is T1, DPP-IV from porcine kidneys (Sus scrofa, UniProt P22411).
T1 construct: DPP-IV from porcine kidneys (Sigma, Munich); purchased Sigma, Munich; host or cells: porcine kidney tissue
The experiment in a line: Measurement of the DPP-IV activity (fluorimetric, H-Ala-Pro-AFC substrate). Format: biochemical. As to conditions: substrate H-Ala-Pro-AFC 15 μM, Tris/HCl pH 7.4, room temperature. Here is the method:
Measurement of the DPP-IV Activity:
DPP-IV from porcine kidneys (Sigma, Munich)
H-Ala-Pro-AFC (Bachem, Weil am Rhein)
DPP-IV (1 mU/ml, end concentration)
H-Ala-Pro-AFC (15 μm end concentration)
in Tris/HCl (40 mM, pH 7.4), total volume 0.2 ml
The reaction was performed at room temperature for different periods (typically 10 minutes) and stopped at the end of the reaction by adding 20 μl of ZnCl2 (1 M). The conversion of H-Ala-Pro-AFC was determined fluorimetrically by measuring the emission at 535 nm on excitation at 405 nm. In the case of addition of inhibitors, the buffer volume added was adjusted such that a total volume of the test mixture of 200 μl maintained.
% inhibition at a fixed concentration was calculated as follows: (1-enzyme activityinhibited reaction/enzyme activityuninhibited reaction)×100
IC50 values for inhibitors were determined by varying the inhibitor concentrations in the case of the specified substrate concentration of 15 μM. Ki and Km values were determined by corresponding variation of substrate and inhibitor concentration as described (Dixon, M. and Webb, E. C. (1979) Enzymes, third edition, pp. 47-206, Academic Press). The values for Km, IC50 and Ki were calculated using a commercially available software package (Leatherbarrow, R. J. (1992) GraFit Version 3.0, Erithacus Software Ltd. Staines, U.K.).

Counter-ions that a name gives are not always drawn.

T1 sequence (P22411 whole entry): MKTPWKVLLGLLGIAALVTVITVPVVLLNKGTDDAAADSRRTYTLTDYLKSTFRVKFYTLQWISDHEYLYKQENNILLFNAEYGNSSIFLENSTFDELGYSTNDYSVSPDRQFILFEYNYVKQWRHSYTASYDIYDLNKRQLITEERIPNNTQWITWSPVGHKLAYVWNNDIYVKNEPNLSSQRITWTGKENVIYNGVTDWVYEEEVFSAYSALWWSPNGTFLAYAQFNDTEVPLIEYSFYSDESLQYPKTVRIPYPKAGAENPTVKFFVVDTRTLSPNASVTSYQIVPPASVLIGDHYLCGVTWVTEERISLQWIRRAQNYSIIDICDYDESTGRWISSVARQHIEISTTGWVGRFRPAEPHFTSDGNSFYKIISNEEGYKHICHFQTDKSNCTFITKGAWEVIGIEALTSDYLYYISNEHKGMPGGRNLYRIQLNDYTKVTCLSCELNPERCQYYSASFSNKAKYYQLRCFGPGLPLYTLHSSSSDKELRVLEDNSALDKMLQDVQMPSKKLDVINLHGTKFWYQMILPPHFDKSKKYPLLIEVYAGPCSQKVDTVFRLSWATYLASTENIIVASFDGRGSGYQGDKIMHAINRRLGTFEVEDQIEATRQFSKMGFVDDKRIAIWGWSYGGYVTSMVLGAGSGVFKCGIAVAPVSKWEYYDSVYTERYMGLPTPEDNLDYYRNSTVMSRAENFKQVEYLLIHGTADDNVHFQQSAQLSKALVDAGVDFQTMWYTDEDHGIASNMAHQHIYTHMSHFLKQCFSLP

For `CC(C)=CCn1c(N2CCC[C@@H](N)C2)nc2ccc(NC(=O)c3ccccc3)cc21` [Example 1, R—N-[2-(3-Aminopiperidin-1-yl)-1-(3-methylbut-2-enyl)-1H-benzimidazol-6-yl]-benzamide trifluoroacetic acid salt], the IC50 was 2.5 µM. As to `CC(C)=CCn1c(N2CCC[C@@H](N)C2)nc2ccc(NC(=O)Cc3ccccc3)cc21` [Example 2], the IC50 is 2.7 µM.

Values taken from patent US8138207B2, “Aminocarbonyl-substituted 8-N-benzimidazoles, methods for their preparation and their use in pharmaceutical compositions” (Sanofi-Aventis, priority 2005, dated 2012).
